{"source": "patent US20190359645A1", "about": "“2'3'-CYCLIC DINUCLEOTIDES COMPRISING CARBOCYCLIC NUCLEOTIDE” (Institute of Organic Chemistry and Biochemistry ASCR, V.V.I., priority 2018, published 2019)", "target": "WT STING (Homo sapiens, UniProt Q86WV6, H232R)", "sequence (Q86WV6 whole entry H232R)": "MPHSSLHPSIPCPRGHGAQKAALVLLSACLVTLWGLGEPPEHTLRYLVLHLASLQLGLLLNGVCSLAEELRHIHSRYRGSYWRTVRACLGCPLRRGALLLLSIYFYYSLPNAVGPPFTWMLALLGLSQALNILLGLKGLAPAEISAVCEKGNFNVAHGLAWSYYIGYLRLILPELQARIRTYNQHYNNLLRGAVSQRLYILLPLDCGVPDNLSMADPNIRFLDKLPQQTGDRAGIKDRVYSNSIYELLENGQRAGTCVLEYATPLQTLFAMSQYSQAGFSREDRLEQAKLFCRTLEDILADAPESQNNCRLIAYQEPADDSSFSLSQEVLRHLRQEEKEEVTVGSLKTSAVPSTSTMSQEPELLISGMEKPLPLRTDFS", "assay": "293T wt STING reporter assay", "format": "cell-based", "set-up": "host or cells: 293T (ATCC CRL-3216), stably transfected; also carries the 4xISRE firefly luciferase reporter", "settings": "293T wtSTING-FL cells, no digitonin, 7 h incubation, ISRE firefly luciferase reporter", "excerpt": "Two complementary oligonucleotides of the sequence […] […] […] […] (SEQ ID NO: 1) and […] […] (SEQ ID NO:2) containing four interferon-sensitive response elements (ISRE) were synthesized by Sigma Aldrich (Czech Republic, Prague). The oligonucleotides were mixed in equal molar amounts, hybridized, and cleaved by restriction endonucleases HindIII (cat. #. R^0104S, NEB, Ipswich, USA) and BglII (cat. # R^0144S, NEB, Ipswich, USA). Ultimately, they were ligated into plasmid pGL4.27 (cat. # E6651, Promega, Madison, USA) linearized with the same enzymes. As a result, the sequence with four ISRE sites was placed upstream of the minimum promoter of firefly luciferase reporter gene.\n293T cells (cat. # CRL-3216, ATCC, Manassas, USA) were seeded a day before transfection at density 125,000 cells per cm^2 onto poly-D-lysine (cat. # P6407, Sigma Aldrich, Czech Republic) coated six well plates in antibiotic free DMEM with high glucose (cat. # D5796, Sigma Aldrich, Czech Republic) supplemented with 10% heat inactivated FBS (cat. # S1520, Biowest, Riverside, USA). […]", "data": [{"compound": "Nc1ncnc2c1ncn2[C@@H]1O[C@@H]2COP(=O)(S)O[C@@H]3[C@H](F)[C@@H](COP(=O)(S)O[C@H]2[C@H]1F)C[C@H]3n1cnc2c(=O)[nH]cnc21", "note": "(single isomer, unassigned) [Compound 128a]", "values": [{"measurement": "EC50", "value": 11, "unit": "µM"}]}, {"compound": "Nc1ncnc2c1ncn2[C@@H]1O[C@@H]2COP(=O)(S)O[C@@H]3[C@H](F)[C@@H](COP(=O)(S)O[C@H]2[C@H]1F)C[C@H]3n1cnc2c(=O)[nH]cnc21", "note": "(single isomer, unassigned) [Compound 128d]", "values": [{"measurement": "EC50", "value": 0.5, "unit": "µM"}]}]}
